Here are results for one substance from patent publication US8093248B2, “Compounds useful for the treatment of conditions associated with weight gain” (AstraZeneca AB (PUBL), priority 2007, dated 2012).

pEC50: −log10 of the molar value.

Test [1] has as its system JEG-3 cells. To be noted: Biol. Reprod. (2007) 76: 203-10; cited from earlier work.
Test [2] relates to JEG-3 cells. The test is described as follows: [3H]-thymidine incorporation in JEG-3 cells (JEG-3 protocol). The class given is cell-based. The note with it: JEG-3 choriocarcinoma cell line, FIG. 6. The method, then:
In JEG-3 cells (choriocarcinoma cell line) leptin is able to stimulate proliferation up to 3 fold (Biol. Reprod. (2007) 76: 203-10). […] The radioactivity incorporated by the cells is an index of their proliferative activity and is measured in counts per minute (CPM) with a liquid scintillation beta counter.
This finding can be applied to test whether a compound is able to either reproduce the effect of leptin on cell proliferation (leptin receptor agonist mimetic) (i.e., a given compound will cause an increase in incorporated [^3H]-Thymidine by the cells) or to inhibit the effect of leptin (antagonistic effect) by preventing the leptin-mediated increase in [^3H]-thymidine incorporation.

Consider “leptin: hormone synthesized in fat cells that is believed to act in the hypothalamus to reduce food intake and body weight”, for which the stimulation of proliferation entry with JEG-3 cells [1] was “up to 3 fold”. The “concentration of maximal effect on [3H]-thymidine incorporation” value in the test with JEG-3 cells [2] was 100 nM. Further, in the test with JEG-3 cells [2] (read-out: EC50 of concentration-dependent increase in [3H]-thymidine incorporation), the pEC50 was 8.68.
